Assay results as given in ChEMBL document CHEMBL1126203, “Synthesis and structure-activity relationships of a series of novel benzopyran-containing platelet activating factor antagonists” (J Med Chem, 1992).

Test system: Rattus norvegicus
Assay: Compounds were evaluated by intravenous administration along with 100 ug/kg of PAF in rat
Type: functional

CCOC(=O)COc1cc(C(C)CCCc2ccc(F)cc2)cc2c1C1=C(CCN(CC(=O)NC)C1)C(C)(C)O2 (stereo unspecified)
ED50: 0.6 mg/kg
